From publication PMC7537607 (Computational Biology and Chemistry, 2020)
Converted amounts (≈) assume the structure as drawn. “And” between values parts separate entries of the source, which are not always exact repeats. Equal entries are not always repeated. Where two headings read alike, the source gives them in different places.

Key:
Coxsackie virus B4 = assay: microbe, parasite or virus in culture; assay type: cell-based; settings: Enterovirus B, B4, Vero, read-out: EC50 Coxsackie virus B4
Yellow Fever virus = assay: microbe, parasite or virus in culture; assay type: cell-based; settings: for EC50: Yellow fever virus, Vero, read-out: EC50 Yellow Fever virus
Punta Toro virus = assay: microbe, parasite or virus in culture; assay type: cell-based; settings: Vero, read-out: EC50 Punta Toro virus
in vitro = settings: human; for viability: 48 h
Sindbis virus = assay: microbe, parasite or virus in culture; assay type: cell-based; settings: Vero, read-out: EC50 Sindbis virus
Reovirus-1 = assay: organism not typed; assay type: cell-based; settings: for EC50: Vero, read-out: EC50 Reovirus-1
Para-influenza-3 virus = assay: organism not typed; assay type: cell-based; settings: for EC50: Vero, read-out: EC50 Para-influenza-3 virus
HIV-1 (strain NL4.3) = assay: microbe, parasite or virus in culture; assay type: cell-based
[1] = Cytotoxicity % Viability Exp - 1, 10 μg/mL
[2] = Cytotoxicity % Viability Exp - 1, 100 μg/mL

Compound	EC50 (Coxsackie virus B4)	SI (Yellow Fever Virus), ratio of MCC to EC50 (Yellow Fever virus)	EC50 (Yellow Fever virus)	Minimum cytotoxic concentration (MCC) (Vero cells; African green monkey) [µg/mL]	EC50 (Punta Toro virus)	viability (in vitro; [1]) [%]	viability (in vitro; [2]) [%]	EC50 (Sindbis virus)	EC50 (Reovirus-1)	EC50 (Para-influenza-3 virus)	SI (Selectivity index ratio CC50/IC50) (HIV-1 (strain NL4.3))	IC50 (HIV-1 (strain NL4.3); Human immunodeficiency virus 1, TZM-bl, read-out: IC50 (HIV infection)) [µg/mL]	CC50 (in vitro)	viability (in vitro; Cytotoxicity % Viability Exp - 2, 1 μg/mL) [%]	viability (in vitro; Cytotoxicity % Viability Exp - 2, 5 μg/mL) [%]	viability (in vitro; Cytotoxicity % Viability Exp - 2, 10 μg/mL) [%]	Minimum cytotoxic concentration (MCC) (Vero cells)	Minimum cytotoxic concentration (MCC), molar value in parentheses (Vero cells)	EC50 Reovirus-1 (Reovirus-1) [µg/mL]	EC50 Para-influenza-3 virus (Para-influenza-3 virus) [µg/mL]
OCCn1c(Cl)nc2ccccc21 [Compound 1a, 2-(2-Chloro-1H-benzimidazol-1-yl)ethan-1-ol]	> 100 µg/mL	1	> 100 µg/mL	>100	> 100 µg/mL	90.1	53.6	> 100 µg/mL	> 100 µg/mL	> 100 µg/mL										
OCCCn1c(Cl)nc2ccccc21 [Compound 1b, 3-(2-Chloro-1H-benzimidazol-1-yl)propan-1-ol]	> 100 µg/mL	1	> 100 µg/mL	>100	> 100 µg/mL	92.6	58.6	> 100 µg/mL	> 100 µg/mL	> 100 µg/mL										
O=[N+]([O-])c1ccc2c(c1)nc(Cl)n2CCO [Compound 2a, 2-(2-Chloro-5-nitro-1H-benzimidazol-1-yl)ethan-1-ol]	> 100 µg/mL	1	> 100 µg/mL	≥100	> 100 µg/mL	104	40.4	> 100 µg/mL	> 100 µg/mL	> 100 µg/mL										
O=[N+]([O-])c1ccc2c(c1)nc(Cl)n2CCCO [Compound 2b, 3-(2-Chloro-5-nitro-1H-benzimidazol-1-yl)propan-1-ol]	> 100 µg/mL				> 100 µg/mL	91.2	69.1	> 100 µg/mL	> 100 µg/mL	> 100 µg/mL										
OCCn1c(Cl)nc2cc(Br)c(Br)cc21 [Compound 3a, 2-(5,6-Dibromo-2-chloro-1H-benzimidazol-1-yl)ethan-1-ol]	> 100 µg/mL	1	> 100 µg/mL	100	> 100 µg/mL	18.5	0.96	> 100 µg/mL	> 100 µg/mL	> 100 µg/mL	2.73	1.37 (≈ 3.87 µM)	3.74 µg/mL and 10.5 µM	83.7	49	13.7				
OCCCn1c(Cl)nc2cc(Br)c(Br)cc21 [Compound 3b, 3-(5,6-Dibromo-2-chloro-1H-benzimidazol-1-yl)propan-1-ol]	> 100 µg/mL	1	> 100 µg/mL	>100	> 100 µg/mL	102	79.8	> 100 µg/mL	> 100 µg/mL	> 100 µg/mL										
O=[N+]([O-])c1cc2nc(Cl)n(CCO)c2cc1[N+](=O)[O-] [Compound 4a, 2-(2-Chloro-5,6-dinitro-1H-benzimidazol-1-yl)ethan-1-ol]	> 100 µg/mL	1	> 100 µg/mL	>100	> 100 µg/mL	99.9	11.2	> 100 µg/mL	> 100 µg/mL	> 100 µg/mL										
O=[N+]([O-])c1cc2nc(Cl)n(CCCO)c2cc1[N+](=O)[O-] [Compound 4b, 3-(2-Chloro-5,6-dinitro-1H-benzimidazol-1-yl)propan-1-ol]	> 100 µg/mL	1	> 100 µg/mL	≥100	> 100 µg/mL	92.1	90.9	> 100 µg/mL	> 100 µg/mL	> 100 µg/mL										
COc1c(C)c2c(c(O)c1C/C=C(\C)CCC(=O)O)C(=O)OC2 [Mycophenolic acid, reference compound]	> 100 µM	125	0.8 µM		14 µM			8.9 µM	6 µM	0.6 µM										
Cc1ccnc2c1NC(=O)c1cccnc1N2C1CC1 [Nevirapine, reference compound]											>200									
NC(=O)c1ncn([C@@H]2O[C@H](CO)[C@@H](O)[C@H]2O)n1 [Ribavirin, reference compound]	> 250 µM	1	> 250 µM		> 250 µM			> 250 µM	> 250 µM	250 µM										
dextran sulfate [DS - 10.000, reference compound]		125															>100 (0.01μM) μg/mL	>100 (0.01μM)	>100	>100
